“Also recorded” adds a separate entry of the source. Where two headings read alike, the source gives them in different places. Where a SMILES comes first, the peptide text is derived from it. The star is where a group is joined. NHC(CH2O-Palmitoyl)3 = CCCCCCCCCCCCCCCC(=O)OCC(COC(=O)CCCCCCCCCCCCCCC)(COC(=O)CCCCCCCCCCCCCCC)N*; X3 = CCCCCCCCCCCCCC(=O)OCC(CO)(CO)N*; X2 = CCCCCCCCCCCC(=O)OCC(CO)(CO)N*
Experiments:
[1] = Electron microscopy of formulated and unformulated compounds; type: physicochemical; details: negatively stained
Experimental: Solutions of formulated and unformulated compounds were analysed for potential membrane-like structure. In separate experiments the following samples were analysed:
a: Negatively stained samples of formulated compounds K3ATP2:DOPE, DOPE and the unformulated compounds K3C7ATL3 and Lipofectamine.
b: Rotary shadowed samples of K3C7ATL3 and Lipofectamine mixed with two ratios of nucleotide (plasmid).
Stock samples of liposomes at 2 mM, were diluted 1 in 10 with filtered distilled water, and mixed 1:1 with filtered negative stain (Ammonium Molybdate 2%, pH 6.5) and spread onto carbon-formvar coated copper/rhodium 200 mesh electron microscope grids, and examined in a Jeol JEM 100CX electron microscope at 60 kV at magnifications of between 33 k and 100 k.
Ratios of 0.69, and 0.25, of liposome:1 mole DNA nucleotides were diluted in water and mixed for 10 min at room temperature, spread onto carbon-formvar coated grids and rotary metal-shadowed with platinum-palladium (60:40) evaporated at an angle of 7° and examined in the electron microscope at 60 kV at magnifications between 26 k and 66 k.

CHO cells [2] = test: Transfection of pSVLCAT, CAT assay, CHO; type: cell-based, Chinese Hamster
Experimental: Protocol was the same for Verafectin and Transfectam (see above) with the exception that 0.5 μg of pSVLCAT DNA was used /60 mm dish.
Lipofectamine protocol was according to manufacturer's instructions. 0.5 μg pSVLCAT/60 mm dish. CHO cells seeded 1×10^5 /60 mm dish and adhered overnight in DME/Hams medium with 10% FCS.
Transfectam 5 or 10 μl 1mg/400 μl stock solution.
Lipofectamine 5 or 10 μl 2 mg/ml (mixed formulation 3:1 with DOPE). VerafectinA3 (K3ATP3) and VerafectinG2 (K3G[Glycine]TP2) each at 5, 10 and 15 μl of 2 mM (2.8 and 2.3 mg/ml respectively) stock.
The serum free incubation period in the presence of test agents and DNA was 6 hours, then 1 ml DME/Hams+10% FCS was added. At 24 hrs the medium was changed to 2 ml of fresh DME/Hams+10% FCS until harvest at 48 hrs.
(§1) Cell lines Cos 1 or CHO were transfected with 0.5 μg of pSVLCAT or 2 μg of pPGKlacZ plasmid using a range of concentrations of each transfection compound. The optimal concentration of compound, that is the concentration giving the highest level of CAT at 48 hours or the greatest percentage of lac z (β-galactosidase) staining cells at 24 hours was used to collate data for Table 1. As all compounds were not tested in a single experiment, absolute figures indicating transfection were not used. Rather, symbols are used to indicate the transfection efficiency relative to Lipofectamine (BRL), which was included as a control in all experiments. Table 1 thus indicates the relative efficiencies of a number of compounds in mediating the transfection of at least one cell type.
(§2) All test lipopeptide reagents were originally dissolved at 10 mM in 75% DMSO, and subsequently diluted with water to make a 2 mM stock stored at 4° C. Volumes of 2 mM stock lipopeptide ranging from 2 μl to 15 μl were diluted in 500 μl of DDME. 1 μg of plasmid pSVLCAT was separately diluted in 500 μl of DDME. Solutions were combined for 10-20 min at room temperature before adding to 500 μl of DDME in 60 mm dishes of subconfluent CHO cells (2×10^5 day-1) or Cos 1 cells (5×10^5 day-1); washed free of serum with DDME.
(§3) Cells were incubated for 6 hrs under standard conditions of 37° C. and 5% CO2 for 6 hours. 1.5 ml of DME/Hams+10% FCS (CHO) or DME+10% FCS (Cos 1) was added to the cells for overnight incubation. Fresh DME/Hams+10% FCS or DME+10% FCS was used to replace the medium for a further 24 hours prior to harvest. Cell lysates were prepared and assayed for CAT activity as described above. For Cos 1 cells, culture supernatants were assayed for CAT activity.
a. Using the standard transfection procedure described above, and 1 μg plasmid pSVLCAT, these formulations were tested on CHO cells at a single concentration equivalent to 10 μl of Verafectin A2 (2 mM) per sample and compared to unformulated compound and Lipofectamine in the same cell type. CAT production was assayed 48 hours after transfection.

CHO cells [3] = test: β-gal microtitre plate transfection assay, CHO; type: cell-based, Chinese Hamster; details: Table 3, CHO; for β-gal (CHO): highest reading of 72 conditions
From the text: (§4) For experiment "c", a plasmid pPGKlaczNLS encoding β-galactosidase under the control of the mouse PGK promoter (kind gift from G.Hannan) or pSVGAL which utilises the SV40 early promoter (Sleigh, M. J. and Lockett, T. J. (1985). EMBO J. 4:3831-3837),was transfected. This experiment and assay were modified from Feigner et al J. Biol Chem. 269(4) 2550-2561 1994. This protocol allows the simultaneous assessment of 72 different combinations and concentrations of DNA and test agent in a microtitre tray. […] Cytotoxicity was assessed using alamar blue, and a sample graph is shown for experiment a.
(§5) Each of these compounds was tested for transfection ability and cytotoxicity on standard cell lines using standard conditions as described above.
(§6) The ratio of [lipid]/[DNA] at which that maximum was achieved is shown in brackets for the two different cell types in the following order; (Cos 1) (CHO). Experiments shown were carried out in Cos 1 cells, as described above. Viability was measured with the dye alamar blue . # Denotes compounds tested in a separate experiment. * Viability in this experiment was determined with MTS. OD is a measure of relative viability of the cells exposed to the different agents, and as with alamar blue, a higher value indicates greater cell viability.

CHO cells [4] = type: cell-based, Chinese Hamster
Experimental: (LEGEND--FIGS. 7, 8 and 9; none; no agent used with plasmid DNA, rb/blank; reagent blank, number following description of compound indicates no. μl of 2 mM stock (diluted with water). 7b: 100% cell survival was taken from dishes which were "mock transfected" with no DNA or transfection agent. 0% viability was assayed in the absence of cells. Viability was assessed using the dye alamar blue.)
(§7) Relative levels of cytotoxicity caused by the different agents were compared during the experiment using the dye "Alamar Blue" (Alamar, Sacramento Calif.).
as §6

Cos 1 cells [5] = type: cell-based, African Green Monkey
From the text: as §7, §4
(§8) The ratio of [lipid]/[DNA] at which that maximum was achieved is shown. Experiments shown were carried out in Cos 1 cells, as described above. MTS OD is a measure of relative viabilility of the cells exposed to the different agents, a higher value indicates greater cell viability. * These points were taken from a separate experiment and some slight variation between absolute numbers should be expected between experiments.
as §6

Cos 1 cells [6] = test: β-gal microtitre plate transfection assay, Cos 1; type: cell-based, African Green Monkey
From the text: as §4
Compounds were tested for their ability to transfect either the CAT or β-gal gene carried on plasmids, and assayed as described above.
as §8, §5, §6

Cos 1 cells [7] = type: cell-based, African Green Monkey; remark: listed apart in the source
Experimental: Relative levels of cytotoxicity were also assayed in subsequent experiments using the dye MTS, marketed as Cell titre 96 Aqueous (Promega).
as §8, §6

Cos 1 cells [8] = test: Transfection of pSVLCAT, CAT assay, Cos 1; type: cell-based, African Green Monkey
Experimental: To test the transfection properties of the lead compound K3ATP3 (VerafectinA3), whole uncut plasmid carrying the gene encoding CAT (chloramphenicol acetyl transferase) under the control of the SV40 late promoter, pSVLCAT (Cameron, F. H. and Jennings, P. A. (1989) PNAS 86, 9139-9143) was mixed with the test agent and put on Cos 1 cells under various conditions. After 48 hours of culture the level of secreted CAT was assayed from the culture medium.
Solution I: 1 μg Plasmid DNA in 500 μl Dulbeccos Modified Eagles Medium (DME)
Solution II: 0-20 μl VerafectinA3 (2.5 mg/ml 25% DMSO) in 500 μl DME, Vortex
Combine solution I and II, vortex briefly and incubate at room temperature for 10 min.
Add mix to washed cells in 60 mm tissue culture dishes (seeded 0.5×10^6 /dish previous day) for 6 hrs at 37° C., 5% C02. Add 2 ml DME+10% FCS for remainder of 48 hrs. Assay CAT levels in tissue culture medium (Sleigh, M. J. (1986) Anal. Biochem. 156.251-256).
a--Compare VerafectinA3 dissolved in DMSO or ethanol.
b--Compare VerafectinA3 on cells 6 hrs to overnight. VerafectinA3 at 10 mg/ml in 100% solvent was diluted to 2.5 mg/ml with water.
Transfection was carried out as for experiment 1. VerafectinA3 was left in contact with the cells for varying times.
Protocol was the same for the Verafectins as described above. Lipofectamine protocol was according to manufacturers instructions. Cos 1 cells were seeded at 5×10^5 /60 mm dish and adhered overnight in DME with 10% FCS.
Solution A: 0.5 μg pSVLCAT/60 mm dish.
Solution B: Lipofectamine 10 and 15 μl 2 mg/ml (mixed formulation 3:1 with DOPE).
OR; VerafectinA3 and VerafectinG2 20 μl 2 mM (2.8 and 2.3 mg/ml respectively) stock.
OR; VerafectinG2 was also tested with an equimolar amount of DOPE. VerafectinG2 and DOPE were mixed in DDME and vortexed for 30 seconds before use. Solutions A and B were combined before overlaying on washed cells.
The serum free incubation period in the presence of test agents and DNA was 6 hrs, then 1 ml DME+10% FCS was added. At 24 hours medium was changed to 2 ml fresh DME+10% FCS until harvest at 48 hrs.
as §1, §2, §3
For transfection of pSVLCAT and subsequent assay of CAT enzyme, experiments "a" and "b" were carried out as described above.

[9] = Table 2, Cos 1, * separate experiment
[10] = Table 3, Cos 1, highest reading of 72 conditions

Row | SMILES | ratio [lipid]/[DNA] at which maximum was achieved (CHO cells [3]) | β-gal (CHO) (CHO cells [3]) | Viability (CHO) (CHO cells [4]) | Viability (Cos 1) (Cos 1 cells [5]) | ratio [lipid]/[DNA] at which maximum was achieved (Cos 1 cells [6]; Table 2, Cos 1) | units β-gal (Cos 1 cells [6]; [9]) | ratio [lipid]/[DNA] at which maximum was achieved (Cos 1 cells [6]; Table 3, Cos 1) | β-gal (Cos 1) (Cos 1 cells [6]; [10]) | other results
1 | CCCCCCCC/C=C\CCCCCCCC(=O)OC[C@H](COP(=O)(O)OCCN)OC(=O)CCCCCCC/C=C\CCCCCCCC [DOPE, Dioleoyl phosphatidyl ethanolamine, reference compound] |  |  |  |  |  |  |  |  | liposome structure (TEM) [1]: does not form a true liposome; also recorded: did not under the same conditions; transfection by DOPE alone (CHO cells [2]; CHO, unformulated or "formulated"): gave no transfection
2 | CCCCCCCCCCCC(=O)OCC(CO)(CO)NC(=O)[C@H](C)NC(=O)[C@H](CCCCN)NC(=O)[C@H](CCCCN)NC(=O)[C@@H](N)CCCCN [K3ATL1] (H-KKKA-X2) | 2.77 | 2.99 × 10^-6 | 0.072 | 0.104 | 0.35 | 1.09 × 10^-5 units | .35 | 1.09 × 10^-5 | 
3 | CCCCCCCCCCCCCC(=O)OCC(CO)(CO)NC(=O)[C@H](C)NC(=O)[C@H](CCCCN)NC(=O)[C@H](CCCCN)NC(=O)[C@@H](N)CCCCN [K3ATM1] (H-KKKA-X3) | .69 | 5.18 × 10^-6 | 0.07 | 0.102 | 0.69 | 5.85 × 10^-6 units | .69 | 5.85 × 10^-6 | 
4 | CCCCCCCCCCCCCCCC(=O)OCC(COC(=O)CCCCCCCCCCCCCCC)(COC(=O)CCCCCCCCCCCCCCC)NC(=O)[C@H](C)NC(=O)[C@H](CCCCN)NC(=O)[C@H](CCCCN)NC(=O)[C@@H](N)CCCCN [K3ATP3, trilysine alanine tris tripalmitate] (H-KKKA-{NHC(CH2O-Palmitoyl)3}) |  |  |  | 0.077 | 0.69 |  |  | 3.52 × 10^-5 | MTS OD490-655 (Cos 1 cells [7]): 1.244; Viability (Cos 1) (Cos 1 cells [7]): 1.24; units β-gal (Cos 1 cells [6]; Table 2, Cos 1, highest reading of 72 conditions): 2.73 × 10^-4 units; β-gal (Cos 1) (Cos 1 cells [6]; Table 3, Cos 1, # tested in a separate experiment): 2.73 × 10^-4; CAT activity (mean) (CHO cells [2]; "x" peptide experiment a, CHO, 25 μl lysate, 20 min assay at 37° C., optimal level): 6237 cpm; mean level of CAT activity (CHO cells [2]; "x" peptide experiment c, CHO, 2 hours incubation of 20 μl lysate): 13467; CAT levels relative to Lipofectamine (CHO cells [2]; Experiment 3, CHO, 5 μl): ~18%; CAT levels relative to Transfectam (CHO cells [2]; Experiment 3, CHO, 5 μl): approximately 54%; CAT activity (mean) (CHO cells [2]; R1-R4 experiment e, CHO): 8325 cpm; Transfection (CAT) (CHO cells [2]; Table 1, CHO, optimised level of agent): +++; amount giving peak CAT level (Cos 1 cells [8]; Experiment 1, 2.5 mg/ml stock, 10 μl (25 μg)): 10 µL; CAT levels (Cos 1 cells [8]; Experiment 1, 5 μl (12.5 μg) and above, 48 hours): Significant CAT levels; reduction of CAT levels, overnight compared to 6 hour incubation (Cos 1 cells [8]; Experiment 2): approximately 50%; CAT levels (Cos 1 cells [8]; Experiment 2, 10 μl (25 μg) and above): Significant levels of CAT; transfection level relative to Lipofectamine (Cos 1 cells [8]; Experiment 4, Cos 1, 48 hours): approximately 60%; Transfection (CAT) (Cos 1 cells [8]; Table 1, Cos 1, optimised level of agent): +++(+)
